Article PMC5503536, “Development of [^11C]vemurafenib employing a carbon-11 carbonylative Stille coupling and preliminary evaluation in mice bearing melanoma tumor xenografts” (Oncotarget, 2017)

Assays:
MeWo cells = experiment: In vitro cell uptake, MeWo; assay type: cell-based
Procedure: (§1) To determine binding of [^11C]vemurafenib in vitro to intact tumor cells a cell uptake study was performed by incubation of tumor cells in suspension with [^11C]vemurafenib, followed by removal of the supernatant and washing of the cells with PBS (phosphate buffered saline). […] While in vitro experiments can be of great value to predict tracer target binding, the experiments exclude many of the factors observed in vivo, for PET-tracer validation. Therefore in vivo experiments are of the utmost importance for PET-tracer validation. […]
(§2) Colo829 or MeWo cells (1*10^6) suspended in growth medium were incubated in triplicate in centrifuge tubes at 37°C with 1 MBq of [^11C]vemurafenib (corresponding to 0.02 nmol of vemurafenib) for 30 min. […] All fractions (cells, supernatant and PBS) were counted for radioactivity using a gamma counter (Wallac 1210 Compugamma, PerkinElmer, Waltham, MA, USA) and the cell bound/internalized percentage of [^11C]vemurafenib was determined as the fraction of activity in the cell pellet divided by the total activity (cells, supernatant and PBS) corrected for background (medium only) and vehicle treated conditions.

[1] = Ex vivo biodistribution, statements made for both xenograft lines; assay type: in vivo, athymic nu/nu mice
Procedure: (§3) To evaluate the in vivo tumor targeting potential an ex vivo biodistribution study was performed in mice bearing the aforementioned melanoma xenografts. Tumor bearing mice were injected with 20–25 MBq of [^11C]vemurafenib (corresponding to 0.36–0.45 nmol of vemurafenib) and sacrificed 60 minutes post injection. Subsequently organs of interest were excised and counted for activity.
(§4) Nude mice (Athymic nu/nu, Harlan, Horst, The Netherlands) bearing two tumors (obtained by injection of MeWo or Colo829 cells, 2*10^6 per site) of the same xenograft line on their left and right flank, received an injection of 25 MBq [^11C]vemurafenib (corresponding to 0.45 nmol of vemurafenib) via the ocular plexus. The mice were sacrificed and dissected at 60 min. post-injection. Blood, urine, skin, left tumor, right tumor, muscle, heart, colon, lung, liver, kidney and brain were collected, weighed and counted for radioactivity in a gamma counter (Wallac 1210 Compugamma, PerkinElmer, Waltham, MA, USA). Biodistribution data are expressed as percentage of injected dose per gram (%ID/g) of tissue for each organ.

[2] = tested on: Colo829 (BRAF^V600E) xenografts; experiment: Ex vivo biodistribution, Colo829 xenograft bearing mice; assay type: in vivo, athymic nu/nu mice; details: 60 min p.i.
Procedure: as §3, §4

[3] = tested on: Colo829 xenograft tumor sections; experiment: Autoradiography on Colo829 xenograft sections; assay type: binding; details: co-incubation with unmodified vemurafenib 100 μM, tracer only = 100%
Procedure: (§5) To determine the binding potential of [^11C]vemurafenib to tumor tissue expressing BRAF^wt or BRAF^V600E, autoradiography studies on xenograft sections and in vitro cellular uptake studies were performed. Sections of tumor xenografts derived from the aforementioned cell lines were incubated with [^11C]vemurafenib.
(§6) Colo829 and MeWo xenograft sections (10 μm thickness) were pre-treated three times with 5 mM Tris-HCl buffer (pH 7.4) for 5 min.. Sections were dried under a gentle air flow before incubation for 30 min. with [^11C]vemurafenib and the following conditions: (A) 5 mM Tris-HCl, pH 7.4; (B) 5 mM Tris-HCl, pH 7.4 and isotopically unmodified vemurafenib at 100 μM (n = 4 for each incubation condition). Washing was performed using Tris-HCl (3×) followed by dipping in ice cold water. After drying in an air stream, tumor sections were exposed to a phosphor-imaging screen for 15 min. Data was quantified as average signal intensity per surface area and were represented relative to the tracer only (A) conditions, which was set at 100%. Error bars indicate standard deviations. Quantification of binding was performed using ImageQuantTL v8.1.0.0 (GE Healthcare, Buckinghamshire, UK) by drawing regions of interest around the full tumor sections.

[4] = Plasma metabolite analysis (in vivo stability); parameters: species or system athymic nu/nu mice; details: for Parent (%): plasma, i.v., non-tumor bearing mice
Procedure: The cartridge was washed with 5 mL of H2O to collect polar radioactive metabolites.

[5] = tested on: MeWo (BRAF^wt) xenografts; experiment: Ex vivo biodistribution, MeWo xenograft bearing mice; assay type: in vivo, athymic nu/nu mice; details: 60 min p.i.
Procedure: as §3, §4

[6] = tested on: MeWo xenograft tumor sections; experiment: Autoradiography on MeWo xenograft sections; assay type: binding; details: co-incubation with unmodified vemurafenib 100 μM, tracer only = 100%
Procedure: as §5, §6

Colo829 cells = experiment: In vitro cell uptake, Colo829; assay type: cell-based
Procedure: as §1, §2

BRAF^wt cells = tested on: BRAF^wt cells; parameters: method as in PMID 20149136; details: cited from earlier work
[7] = tested on: Colo829 (BRAF^V600E) cells; experiment: Cell titer blue cell viability assay, Colo829; assay type: cell-based; details: Homo sapiens, COLO-829
Procedure: (§7) Having a reliable synthesis route to obtain [^11C]vemurafenib, cell lines had to be selected to evaluate the tumor targeting potential of [^11C]vemurafenib. Two melanoma cell lines were selected based on reported mutational status of BRAF: Colo829 (BRAF^V600E) and MeWo (BRAF^wt). Both cell lines were analyzed by Fluorescence Activated Cell Sorting (FACS) using a BRAF antibody (recognizing both wild-type and BRAF^V600E) and a BRAF^V600E selective antibody for assessment of target expression (Figure 2A/2B). […] Furthermore, both the cells as well as the xenografts derived from the cell lines were sequenced to confirm the expression of BRAF and the mutational status thereof. […] (V600E) and MeWo cells and xenografts were wild-type. […] So while the BRAF^V600E kinase is sensitive to vemurafenib treatment, it appears that a certain level of mutated protein expression is required for this sensitivity, as both cell lines expressed the mutation to an extent, as determined by FACS. In contrast sequencing only detected the V600E mutation in the Colo829, indicative of higher expression. […]
(§8) Vemurafenib stock solutions of 1 mM in DMSO were prepared and diluted with PBS to a concentration of 10 μM (1% DMSO). […] Finally the fluorescence was measured using a TriStar^2 LB942 plate reader (Berthold Technologies, Bad Wildbad, Germany). […]

[8] = parameters: method as in PMID 23060265; details: phase I trial with 32 patients; cited from earlier work
BCRP = details: cited from earlier work
[9] = parameters: method as in PMID 23060265; details: phase III, vs patients treated with dacarbazine; cited from earlier work
P-gp = details: cited from earlier work
MeWo (BRAF^wt) cells = experiment: Cell titer blue cell viability assay, MeWo; assay type: cell-based; details: 120 h incubation, CellTiter-Blue
Procedure: as §7, §8

BRAF^V600E cells = tested on: BRAF^V600E cells; parameters: method as in PMID 20149136; details: cited from earlier work

CCCS(=O)(=O)Nc1ccc(F)c([11C](=O)c2c[nH]c3ncc(-c4ccc(Cl)cc4)cc23)c1F [[^11C]vemurafenib]
cell bound + internalized fraction (MeWo cells; 30 min, 37°C, unblocked): 61.6 ± 8.2%
cell bound + internalized fraction after pretreatment with unmodified vemurafenib (MeWo cells; blocked): 20.6 ± 0.4%
blood levels ([1]; after 60 minutes, xenograft bearing mice): 2–3 %ID/g
tumor-to-tissue ratios (muscle, blood, skin), all cases ([1]; both xenograft lines, 60 min p.i.): ≤ 1
Tumor-to-blood ratio ([2]; Colo829 (BRAF^V600E)): 0.27 ± 0.06
Tumor-to-muscle ratio ([2]; Colo829 (BRAF^V600E)): 0.78 ± 0.18
Tumor-to-skin ratio ([2]; Colo829 (BRAF^V600E)): 0.90 ± 0.19
Tumor uptake ([2]; Colo829 tumors, 20–25 MBq): 0.87 ± 0.14 ID/g
binding when compared to unblocked conditions [3]: 51.2 ± 11.2%
intact tracer in plasma (stability) ([4]; 45 minutes after injection): > 95%
Parent (%) ([4]; 15 min p.i.): 97.8 ± 1.9%
Parent (%) ([4]; 45 min p.i.): 95.9 ± 4.4%
Tumor-to-blood ratio ([5]; MeWo (BRAF^WT)): 0.29 ± 0.19
Tumor-to-muscle ratio ([5]; MeWo (BRAF^WT)): 0.72 ± 0.21
Tumor-to-skin ratio ([5]; MeWo (BRAF^WT)): 0.89 ± 0.28
Tumor uptake ([5]; MeWo tumors, 20–25 MBq): 0.49 ± 0.29 %ID/g
binding when compared to unblocked conditions [6]: 65.1 ± 3.1%
cell bound + internalized fraction (Colo829 cells; 30 min, 37°C, unblocked): 74.3 ± 1.5%
cell bound + internalized fraction after pretreatment with unmodified vemurafenib (Colo829 cells; blocked): 17.0 ± 2.3%

CCCS(=O)(=O)Nc1ccc(F)c(C(=O)c2c[nH]c3ncc(-c4ccc(Cl)cc4)cc23)c1F [vemurafenib, Vemurafenib]
effect on ERK1/2 and MEK phosphorylation (BRAF^wt cells): rapid phosphorylation of ERK1/2 and MEK
IC50 ([7]; Colo829 (BRAF^V600E), 120 h incubation, CellTiter-Blue): 130 nM
EC50 ([7]; printed in the picture beside the fitted curve, apparently Colo829, read-out: EC50, cell viability curve (Figure 2C)): 130 nM
unconfirmed overall response rate [8]: 81%
substrate for ABC-cassette efflux transporter BCRP (BCRP): substrate
reduction in the risk of death [9]: 63%
substrate for ABC-cassette efflux transporter P-gp (P-gp): substrate
IC50, cell viability (MeWo (BRAF^wt) cells): no IC50 was observed
effect on ERK1/2 phosphorylation (BRAF^V600E cells): abolished ERK1/2 phosphorylation
